Measured values as given in patent EP0183129A1, “Quinolonecarboxylic acid derivatives” (KYORIN PHARMACEUTICAL CO., LTD., priority 1984, dated 1986).
≈ marks a conversion by molar mass, not a printed value. Like-named read-outs stand apart in the source and are kept apart here.

What was measured:
C. difficile I-E = experiment: In vitro antibacterial activity, MIC (standard strain); format: cell-based; settings: Clostridioides difficile
S. epidermidis IID 866 = experiment: as above; format: cell-based; settings: Staphylococcus epidermidis, IID866
[1] = tested on: Escherichia coli NIHJ JC-2; experiment: as above; format: cell-based; settings: Escherichia coli, NIHJJC2
[2] = tested on: Bacillus subtilis PCI 219; experiment: as above; format: cell-based; settings: Bacillus subtilis, PCI219
K. pneumoniae 1-220S = experiment: as above; format: cell-based; settings: Klebsiella pneumoniae, 1220S
[3] = tested on: Morganella morganii IID 602; experiment: as above; format: cell-based; settings: IID602; Morganella morganii IID 602; 10^6 cells/ml; standard strain; read-out: MIC
[4] = tested on: Proteus vulgaris IFO 3167; experiment: as above; format: cell-based; settings: Proteus vulgaris, IFO3167
[5] = tested on: Staphylococcus aureus 209 P; experiment: as above; format: cell-based; settings: Staphylococcus aureus, 209P
S. aureus Smith [6] = experiment: In vivo antibacterial activity against systemic infection in mice; set-up: species or system mice (ICR-S); settings: Staphylococcus aureus, po
Protocol: (§1) Experiment-2 In vivo antibacterial activity against systemic infection in mice (ICR-S)
(§2) The infections were produced by intraperitoneal injection of a suspension of the bacterial culture corresponding to the germ studied. The products were administered orally at an hour after the infection.

E. coli ML4707 = experiment: as above; set-up: species or system mice (ICR-S); settings: Escherichia coli, ML4707, po, read-out: ED50 E. coli ML4707
Protocol: as §1, §2

S. pneumoniae S-4288 = experiment: as above; set-up: species or system mice (ICR-S); settings: Streptococcus pneumoniae, S4288, po, read-out: ED50 S. pneumoniae S-4288
Protocol: as §1, §2

[7] = tested on: Serratia marcescens IID 618; experiment: In vitro antibacterial activity, MIC (standard strain); format: cell-based; settings: Serratia marcescens, IID618
Shigella sonnei IID 969 = experiment: as above; format: cell-based; settings: IID969, 10^6 cells/ml
Protocol: Experiment-1 In vitro antibacterial activity
The in vitro antibacterial activity against gram-positive and gram-negative bacteria has been investivated.
The minimum inhibitory concentration (MIC) was determined in accordance with the method recommended by Japan Society of Chemotherapy.

[8] = tested on: Klebsiella pneumoniae KY(GN)6445; experiment: as above; format: cell-based; settings: Klebsiella pneumoniae
E. coli ATCC 10536 = experiment: as above; format: cell-based; settings: Escherichia coli, ATCC10536
P. mirabilis IID 994 = experiment: as above; format: cell-based; settings: Proteus mirabilis, IID994
[9] = tested on: Citrobacter freundii IID 976; experiment: as above; format: cell-based; settings: Citrobacter freundii, IID976
[10] = tested on: Salmonella entritidis IID 604; experiment: as above; format: cell-based; settings: Salmonella, IID604
[11] = tested on: S. aureus IID 670 (Terajima); experiment: as above; format: cell-based, Staphylococcus aureus; settings: Staphylococcus aureus, IID670
[12] = tested on: Yersinia enterocolitica IID 981; experiment: as above; format: cell-based; settings: Yersinia enterocolitica, IID981
E. coli ML 4707 = experiment: as above; format: cell-based; settings: Escherichia coli, ML4707
S. aureus Smith [13] = experiment: as above; format: cell-based, Staphylococcus aureus; settings: Staphylococcus aureus, MIC column of Table 3-1, beside ED50 against S. aureus Smith
[14] = tested on: Fusobacterium varium KYA 8501; experiment: as above; format: cell-based; settings: Fusobacterium varium, KYA8501

Structure (SMILES): O=C(O)c1cn(C2CC2)c2cc(N3CCNCC3)c(F)cc2c1=O [CFLX, Ciprofloxacin, reference compound]
- MIC (C. difficile I-E): 12.5 mg/L (≈ 37.7 µM)
- MIC (S. epidermidis IID 866): 0.2 mg/L (≈ 0.604 µM)
- MIC [1]: 0.0125 mg/L (≈ 0.0377 µM)
- MIC [2]: 0.05 mg/L (≈ 0.151 µM)
- MIC (K. pneumoniae 1-220S): 0.05 mg/L (≈ 0.151 µM)
- MIC [3]: 0.05 mg/L (≈ 0.151 µM)
- MIC [4]: 0.0125 mg/L (≈ 0.0377 µM)
- MIC [5]: 0.2 mg/L (≈ 0.604 µM)
- ED50 (S. aureus Smith [6]; read-out: ED50 S. aureus Smith, mice (ICR-S), an hour after intraperitoneal infection, challenge dose 6.0 x 10^5 cfu/mouse): > 25 mg/kg
- ED50 (S. aureus Smith [6]; read-out: ED50 against S. aureus Smith, mice (ICR-S), an hour after intraperitoneal infection, challenge dose 5.5 x 10^5 cfu/mouse, n=5): 25.5 mg/kg
- ED50 (S. aureus Smith [6]; read-out: ED50 against S. aureus Smith, mice (ICR-S), an hour after intraperitoneal infection, challenge dose 7 x 10^5 cfu/mouse, n=5): 12.3 mg/kg
- ED50 (E. coli ML4707): 1.8 mg/kg
- ED50 (S. pneumoniae S-4288): > 100 mg/kg
- MIC [7]: 0.05 mg/L (≈ 0.151 µM)
- MIC (Shigella sonnei IID 969): 0.0125 mg/L (≈ 0.0377 µM)
- MIC [8]: 0.025 mg/L (≈ 0.0754 µM)
- MIC (E. coli ATCC 10536): 0.025 mg/L (≈ 0.0754 µM)
- MIC (P. mirabilis IID 994): 0.025 mg/L (≈ 0.0754 µM)
- MIC [9]: 0.025 mg/L (≈ 0.0754 µM)
- MIC [10]: 0.05 mg/L (≈ 0.151 µM)
- MIC [11]: 0.2 mg/L (≈ 0.604 µM)
- MIC [12]: 0.05 mg/L (≈ 0.151 µM)
- MIC (E. coli ML 4707): 0.0125 mg/L (≈ 0.0377 µM)
- MIC (S. aureus Smith [13]): 0.2 mg/L (≈ 0.604 µM)
- MIC [14]: 12.5 mg/L (≈ 37.7 µM)
